Reference: ChEMBL document CHEMBL1201861, “Genomics of Drug Sensitity in Cancer screening data, Wellcome Trust Sanger Institute”

Key:
Assay in all cases: cells
MV4-11 = format: functional, cell-based, Homo sapiens, MV-4-11; conditions: Homo sapiens, MV4-11
Description: SANGER: Inhibition of human MV-4-11 cell growth in a cell viability assay.

D283 Med = format: functional, cell-based, Homo sapiens; conditions: Homo sapiens, D283 Med
Description: SANGER: Inhibition of human D-283MED cell growth in a cell viability assay.

KNS-81-FD = format: functional, cell-based, Homo sapiens; conditions: Homo sapiens, KNS-81-FD
Description: SANGER: Inhibition of human KNS-81-FD cell growth in a cell viability assay.

ONS-76 = format: functional, cell-based, Homo sapiens; conditions: Homo sapiens, ONS-76
Description: SANGER: Inhibition of human ONS-76 cell growth in a cell viability assay.

NCI-H720 = format: functional, cell-based, Homo sapiens; conditions: Homo sapiens, NCI-H720
Description: SANGER: Inhibition of human NCI-H720 cell growth in a cell viability assay.

KM12 = format: functional, cell-based, Homo sapiens; conditions: Homo sapiens, KM12
Description: SANGER: Inhibition of human KM12 cell growth in a cell viability assay.

COLO-829 = format: functional, cell-based, Homo sapiens; conditions: Homo sapiens, COLO-829
Description: SANGER: Inhibition of human COLO-829 cell growth in a cell viability assay.

K5 = format: functional, cell-based, Homo sapiens; conditions: Homo sapiens, K5
Description: SANGER: Inhibition of human K5 cell growth in a cell viability assay.

LB996-RCC = format: functional, cell-based, Homo sapiens; conditions: Homo sapiens, LB996-RCC
Description: SANGER: Inhibition of human LB996-RCC cell growth in a cell viability assay.

AM-38 = format: functional, cell-based, Homo sapiens; conditions: Homo sapiens, AM-38
Description: SANGER: Inhibition of human AM-38 cell growth in a cell viability assay.

KP-N-YS = format: functional, cell-based, Homo sapiens; conditions: Homo sapiens, KP-N-YS
Description: SANGER: Inhibition of human KP-N-YS cell growth in a cell viability assay.

LS-1034 = format: functional, cell-based, Homo sapiens; conditions: Homo sapiens, LS-1034
Description: SANGER: Inhibition of human LS-1034 cell growth in a cell viability assay.

NCI-H23 = format: functional, cell-based, Homo sapiens; conditions: Homo sapiens, NCI-H23
Description: SANGER: Inhibition of human NCI-H23 cell growth in a cell viability assay.

NCI-H1650 = format: functional, cell-based, Homo sapiens; conditions: Homo sapiens, NCI-H1650
Description: SANGER: Inhibition of human NCI-H1650 cell growth in a cell viability assay.

HT-144 = format: functional, cell-based, Homo sapiens; conditions: Homo sapiens, HT-144
Description: SANGER: Inhibition of human HT-144 cell growth in a cell viability assay.

A253 cell line = format: functional, cell-based, Homo sapiens; conditions: Homo sapiens, A253
Description: SANGER: Inhibition of human A253 cell growth in a cell viability assay.

HL-60 = format: functional, cell-based, Homo sapiens; conditions: Homo sapiens, HL-60
Description: SANGER: Inhibition of human HL-60 cell growth in a cell viability assay.

LB831-BLC = format: functional, cell-based, Homo sapiens; conditions: Homo sapiens, LB831-BLC
Description: SANGER: Inhibition of human LB831-BLC cell growth in a cell viability assay.

UACC-257 = format: functional, cell-based, Homo sapiens; conditions: Homo sapiens, UACC-257
Description: SANGER: Inhibition of human UACC-257 cell growth in a cell viability assay.

U-87 MG = format: functional, cell-based, Homo sapiens, U-87MG ATCC; conditions: Homo sapiens, U-87 MG
Description: SANGER: Inhibition of human U-87-MG cell growth in a cell viability assay.

KALS-1 = format: functional, cell-based, Homo sapiens; conditions: Homo sapiens, KALS-1; read-out: IC50
Description: SANGER: Inhibition of human KALS-1 cell growth in a cell viability assay.

Lu-65 = format: functional, cell-based, Homo sapiens; conditions: Homo sapiens, Lu-65
Description: SANGER: Inhibition of human LU-65 cell growth in a cell viability assay.

GI-ME-N = format: functional, cell-based, Homo sapiens; conditions: Homo sapiens, GI-ME-N
Description: SANGER: Inhibition of human GI-ME-N cell growth in a cell viability assay.

KG-1 = format: functional, cell-based, Homo sapiens; conditions: Homo sapiens, KG-1
Description: SANGER: Inhibition of human KG-1 cell growth in a cell viability assay.

NH-12 = format: functional, cell-based, Homo sapiens; conditions: Homo sapiens, NH-12
Description: SANGER: Inhibition of human NH-12 cell growth in a cell viability assay.

J-RT3-T3-5 = format: functional, cell-based, Homo sapiens; conditions: Homo sapiens, J-RT3-T3-5
Description: SANGER: Inhibition of human J-RT3-T3-5 cell growth in a cell viability assay.

SK-N-DZ = format: functional, cell-based, Homo sapiens; conditions: Homo sapiens, SK-N-DZ; read-out: IC50
Description: SANGER: Inhibition of human SK-N-DZ cell growth in a cell viability assay.

MHH-NB-11 = format: functional, cell-based, Homo sapiens; conditions: Homo sapiens, MHH-NB-11
Description: SANGER: Inhibition of human MHH-NB-11 cell growth in a cell viability assay.

CW-2 = format: functional, cell-based, Homo sapiens; conditions: Homo sapiens, CW-2
Description: SANGER: Inhibition of human CW-2 cell growth in a cell viability assay.

DEL = format: functional, cell-based, Homo sapiens; conditions: Homo sapiens, DEL
Description: SANGER: Inhibition of human DEL cell growth in a cell viability assay.

SJSA-1 = format: functional, cell-based, Homo sapiens; conditions: Homo sapiens, SJSA-1
Description: SANGER: Inhibition of human SJSA-1 cell growth in a cell viability assay.

HCC1187 = format: functional, cell-based, Homo sapiens; conditions: Homo sapiens, HCC1187
Description: SANGER: Inhibition of human HCC1187 cell growth in a cell viability assay.

MOLT-4 = format: functional, cell-based, Homo sapiens; conditions: Homo sapiens, MOLT-4
Description: SANGER: Inhibition of human MOLT-4 cell growth in a cell viability assay.

PSN1 = format: functional, cell-based, Homo sapiens; conditions: Homo sapiens, PSN1
Description: SANGER: Inhibition of human PSN1 cell growth in a cell viability assay.

MHH-PREB-1 = format: functional, cell-based, Homo sapiens; conditions: Homo sapiens, MHH-PREB-1
Description: SANGER: Inhibition of human MHH-PREB-1 cell growth in a cell viability assay.

SK-PN-DW = format: functional, cell-based, Homo sapiens; conditions: Homo sapiens, SK-PN-DW
Description: SANGER: Inhibition of human SK-PN-DW cell growth in a cell viability assay.

RCC10RGB = format: functional, cell-based, Homo sapiens; conditions: Homo sapiens, RCC10RGB
Description: SANGER: Inhibition of human RCC10RGB cell growth in a cell viability assay.

MEG-01 = format: functional, cell-based, Homo sapiens; conditions: Homo sapiens, MEG-01
Description: SANGER: Inhibition of human MEG-01 cell growth in a cell viability assay.

BB49-HNC = format: functional, cell-based, Homo sapiens; conditions: Homo sapiens, BB49-HNC
Description: SANGER: Inhibition of human BB49-HNC cell growth in a cell viability assay.

CCRF-CEM = format: functional, cell-based, Homo sapiens; conditions: Homo sapiens, CCRF-CEM
Description: SANGER: Inhibition of human CCRF-CEM cell growth in a cell viability assay.

RPMI-8226 = format: functional, cell-based, Homo sapiens; conditions: Homo sapiens, RPMI-8226
Description: SANGER: Inhibition of human RPMI-8226 cell growth in a cell viability assay.

TE-10 = format: functional, cell-based, Homo sapiens; conditions: Homo sapiens, TE-10
Description: SANGER: Inhibition of human TE-10 cell growth in a cell viability assay.

GR-ST = format: functional, cell-based, Homo sapiens; conditions: Homo sapiens, GR-ST
Description: SANGER: Inhibition of human GR-ST cell growth in a cell viability assay.

HD-MY-Z = format: functional, cell-based, Homo sapiens; conditions: Homo sapiens, HD-MY-Z
Description: SANGER: Inhibition of human HD-MY-Z cell growth in a cell viability assay.

NEC8 = format: functional, cell-based, Homo sapiens; conditions: Homo sapiens, NEC8
Description: SANGER: Inhibition of human NEC8 cell growth in a cell viability assay.

EKVX = format: functional, cell-based, Homo sapiens; conditions: Homo sapiens, EKVX
Description: SANGER: Inhibition of human EKVX cell growth in a cell viability assay.

LXF-289 cell line = format: functional, cell-based; conditions: Homo sapiens
Description: SANGER: Inhibition of human LXF-289 cell growth in a cell viability assay.

## O=C1NC(=O)c2c1c(-c1ccccc1Cl)cc1[nH]c3ccc(O)cc3c21
MV4-11
  IC50: 0.809 µM
D283 Med
  IC50: > 2 µM
KNS-81-FD
  IC50: > 2 µM
ONS-76
  IC50: > 2 µM
NCI-H720
  IC50: 1.7 µM
KM12
  IC50: > 2 µM
COLO-829
  IC50: > 2 µM
K5
  IC50: > 2 µM
LB996-RCC
  IC50: > 2 µM
AM-38
  IC50: > 2 µM
KP-N-YS
  IC50: > 2 µM
LS-1034
  IC50: > 2 µM
NCI-H23
  IC50: > 2 µM
NCI-H1650
  IC50: > 2 µM
HT-144
  IC50: > 2 µM
A253 cell line
  IC50: > 2 µM
HL-60
  IC50: > 2 µM
LB831-BLC
  IC50: > 2 µM
UACC-257
  IC50: > 2 µM
U-87 MG
  IC50: > 2 µM
KALS-1
  IC50: 0.834 µM
Lu-65
  IC50: > 2 µM
GI-ME-N
  IC50: 1.53 µM
KG-1
  IC50: 0.862 µM
NH-12
  IC50: > 2 µM
J-RT3-T3-5
  IC50: 1.58 µM
SK-N-DZ
  IC50: > 2 µM
MHH-NB-11
  IC50: > 2 µM
CW-2
  IC50: > 2 µM
DEL
  IC50: 0.485 µM
SJSA-1
  IC50: > 2 µM
HCC1187
  IC50: > 2 µM
MOLT-4
  IC50: > 2 µM
PSN1
  IC50: > 2 µM
MHH-PREB-1
  IC50: 0.523 µM
SK-PN-DW
  IC50: > 2 µM
RCC10RGB
  IC50: > 2 µM
MEG-01
  IC50: > 2 µM
BB49-HNC
  IC50: > 2 µM
CCRF-CEM
  IC50: > 2 µM
RPMI-8226
  IC50: > 2 µM
TE-10
  IC50: > 2 µM
GR-ST
  IC50: 0.975 µM

## CN(C)CCOc1ccc(-c2nc(-c3ccncc3)c(-c3ccc4c(c3)CC/C4=N\O)[nH]2)cc1 [SB590885]
MV4-11
  IC50: > 5 µM
HD-MY-Z
  IC50: > 5 µM
D283 Med
  IC50: > 5 µM
KNS-81-FD
  IC50: > 5 µM
ONS-76
  IC50: > 5 µM
NCI-H720
  IC50: > 5 µM
KM12
  IC50: > 5 µM
COLO-829
  IC50: 0.967 µM
LB996-RCC
  IC50: > 5 µM
AM-38
  IC50: > 5 µM
KP-N-YS
  IC50: > 5 µM
LS-1034
  IC50: > 5 µM
NCI-H23
  IC50: > 5 µM
NCI-H1650
  IC50: > 5 µM
HT-144
  IC50: 0.435 µM
A253 cell line
  IC50: > 5 µM
HL-60
  IC50: > 5 µM
LB831-BLC
  IC50: > 5 µM
UACC-257
  IC50: 1.13 µM
U-87 MG
  IC50: > 5 µM
Lu-65
  IC50: > 5 µM
GI-ME-N
  IC50: > 5 µM
KG-1
  IC50: > 5 µM
NH-12
  IC50: > 5 µM
J-RT3-T3-5
  IC50: > 5 µM
SK-N-DZ
  IC50: > 5 µM
MHH-NB-11
  IC50: > 5 µM
CW-2
  IC50: > 5 µM
DEL
  IC50: > 5 µM
SJSA-1
  IC50: > 5 µM
HCC1187
  IC50: > 5 µM
MOLT-4
  IC50: > 5 µM
PSN1
  IC50: 1.87 µM
NEC8
  IC50: > 5 µM
MHH-PREB-1
  IC50: > 5 µM
SK-PN-DW
  IC50: > 5 µM
RCC10RGB
  IC50: > 5 µM
EKVX
  IC50: > 5 µM
MEG-01
  IC50: > 5 µM
BB49-HNC
  IC50: > 5 µM
CCRF-CEM
  IC50: > 5 µM
RPMI-8226
  IC50: > 5 µM
TE-10
  IC50: > 5 µM
LXF-289 cell line
  IC50: > 5 µM
GR-ST
  IC50: > 5 µM

## CS(=O)(=O)N1CCN(Cc2cc3nc(-c4cccc5[nH]ncc45)nc(N4CCOCC4)c3s2)CC1 [PICTILISIB]
MV4-11
  IC50: 0.724 µM
HD-MY-Z
  IC50: > 4 µM
D283 Med
  IC50: 2.36 µM
KNS-81-FD
  IC50: > 4 µM
ONS-76
  IC50: > 4 µM
KM12
  IC50: > 4 µM
COLO-829
  IC50: > 4 µM
LB996-RCC
  IC50: 1.22 µM
AM-38
  IC50: > 4 µM
KP-N-YS
  IC50: > 4 µM
LS-1034
  IC50: > 4 µM
NCI-H23
  IC50: > 4 µM
NCI-H1650
  IC50: > 4 µM
HT-144
  IC50: > 4 µM
A253 cell line
  IC50: > 4 µM
HL-60
  IC50: 0.426 µM
LB831-BLC
  IC50: > 4 µM
UACC-257
  IC50: > 4 µM
U-87 MG
  IC50: > 4 µM
KALS-1
  IC50: > 4 µM
GI-ME-N
  IC50: > 4 µM
KG-1
  IC50: > 4 µM
NH-12
  IC50: 2.05 µM
J-RT3-T3-5
  IC50: > 4 µM
SK-N-DZ
  IC50: > 4 µM
MHH-NB-11
  IC50: > 4 µM
CW-2
  IC50: > 4 µM
DEL
  IC50: > 4 µM
SJSA-1
  IC50: 3.71 µM
HCC1187
  IC50: > 4 µM
MOLT-4
  IC50: 0.624 µM
PSN1
  IC50: > 4 µM
NEC8
  IC50: 0.654 µM
MHH-PREB-1
  IC50: 0.114 µM
SK-PN-DW
  IC50: > 4 µM
RCC10RGB
  IC50: > 4 µM
EKVX
  IC50: 1.01 µM
MEG-01
  IC50: > 4 µM
BB49-HNC
  IC50: 1.89 µM
CCRF-CEM
  IC50: > 4 µM
RPMI-8226
  IC50: > 4 µM
TE-10
  IC50: > 4 µM
LXF-289 cell line
  IC50: 0.448 µM
GR-ST
  IC50: > 4 µM
